Experimental data published in US20230293630A1, “Coronavirus T Cell Epitopes and Uses Thereof” (priority 2020, published 2023).
Like-named read-outs stand apart in the source and are kept apart here.

Tested on: SARS-CoV-2-specific CD4+ T cells (OX40+CD137+) in PBMC
Format: cell-based, human
[1] = CD4+ T cell epitopes identified by AIM assay, share of donors responding
[2] = CD4+ T cell epitopes identified by AIM assay, sum of response per responding donor
[3] = CD4+ T cell epitopes identified by AIM assay, total response
[4] = CD4+ T cell epitopes identified by AIM assay, percent of tested donors responding
[5] = CD4+ T cell epitopes identified by AIM assay, total response summed over donors

SSANNCTFEYVSQPF
Frequency of response (%): 27%
Magnitude by # of responding donors: 1426
Sum of response: 4279

IAATRGATVVIGTSK
Frequency of response (%) [1]: 6%
Magnitude by # of responding donors [2]: 117
Sum of response [3]: 117

YADSFVIRGDEVRQI
Frequency of response (%) [1]: 8%
Magnitude by # of responding donors [2]: 160
Sum of response [3]: 160

YSRYRIGNYKLNTDH
Frequency of response (%) [1]: 15%
Magnitude by # of responding donors [2]: 276
Sum of response [3]: 551

FLHFLPRVFSAVGNI
Frequency of response (%) [1]: 9%
Magnitude by # of responding donors [2]: 491
Sum of response [3]: 491

YDANYFLCWHTNCYD
Frequency of response (%) [1]: 7%
Magnitude by # of responding donors [2]: 209
Sum of response [3]: 209

EDFLEYHDVRVVLDF
Frequency of response (%) [1]: 18%
Magnitude by # of responding donors [2]: 571
Sum of response [3]: 1141

GKGQQQQGQTVTKKS
Frequency of response (%) [1]: 7%
Magnitude by # of responding donors [2]: 318
Sum of response [3]: 318

LYLYALVYFLQSINF
Frequency of response (%) [1]: 21%
Magnitude by # of responding donors [2]: 124
Sum of response [3]: 371

LPYGANKDGIIWVAT
Frequency of response (%) [1]: 14%
Magnitude by # of responding donors [2]: 418
Sum of response [3]: 835

SGHNLAKHCLHVVGP
Frequency of response (%) [1]: 8%
Magnitude by # of responding donors [2]: 148
Sum of response [3]: 148

NFSQILPDPSKPSKR
Frequency of response (%) [4]: 33%
Magnitude by # of responding donors [2]: 647
Sum of response [5]: 2589

FIYNKIVDEPEEHVQ
Frequency of response (%) [1]: 14%
Magnitude by # of responding donors [2]: 243
Sum of response [3]: 486

LGDIAARDLICAQKF
Frequency of response (%) [1]: 8%
Magnitude by # of responding donors [2]: 153
Sum of response [3]: 153

DFLEYHDVRVVLDFI
Frequency of response (%) [1]: 18%
Magnitude by # of responding donors [2]: 341
Sum of response [3]: 681

NIDGYFKIYSKHTPI
Frequency of response (%) [1]: 45%
Magnitude by # of responding donors [2]: 295
Sum of response [3]: 1475

VIRGDEVRQIAPGQT
Frequency of response (%) [1]: 9%
Magnitude by # of responding donors [2]: 180
Sum of response [3]: 180

VNARLRAKHYVYIGD
Frequency of response (%) [1]: 8%
Magnitude by # of responding donors [2]: 116
Sum of response [3]: 116

SWFTALTQHGKEDLK
Frequency of response (%) [1]: 23%
Magnitude by # of responding donors [2]: 1088
Sum of response [3]: 3265

SFNPETNILLNVPLH
Frequency of response (%) [1]: 8%
Magnitude by # of responding donors [2]: 123
Sum of response [3]: 123

SFLAHIQWMVMFTPL
Frequency of response (%) [1]: 8%
Magnitude by # of responding donors [2]: 554
Sum of response [3]: 554

LKPFERDISTEIYQA
Frequency of response (%) [1]: 17%
Magnitude by # of responding donors [2]: 594
Sum of response [3]: 1188

NKDGIIWVATEGALN
Frequency of response (%) [1]: 29%
Magnitude by # of responding donors [2]: 437
Sum of response [3]: 1747

IGNYKLNTDHSSSSD
Frequency of response (%) [1]: 15%
Magnitude by # of responding donors [2]: 134
Sum of response [3]: 267

AAEASKKPRQKRTAT
Frequency of response (%) [1]: 23%
Magnitude by # of responding donors [2]: 179
Sum of response [3]: 537

QFAYANRNRFLYIIK
Frequency of response (%) [1]: 20%
Magnitude by # of responding donors [2]: 326
Sum of response [3]: 978

HTTDPSFLGRYMSAL
Frequency of response (%) [1]: 18%
Magnitude by # of responding donors [2]: 2461
Sum of response [3]: 4921

LQPELDSFKEELDKY
Frequency of response (%) [1]: 7%
Magnitude by # of responding donors [2]: 173
Sum of response [3]: 173

VVIKVCEFQFCNDPF
Frequency of response (%) [1]: 9%
Magnitude by # of responding donors [2]: 2088
Sum of response [3]: 2088

LLFNKVTLADAGFIK
Frequency of response (%) [1]: 8%
Magnitude by # of responding donors [2]: 297
Sum of response [3]: 297

MWLSYFIASFRLFAR
Frequency of response (%) [1]: 25%
Magnitude by # of responding donors [2]: 343
Sum of response [3]: 1030

CEFQFCNDPFLGVYY
Frequency of response (%) [4]: 27%
Magnitude by # of responding donors [2]: 359
Sum of response [5]: 1077

PQNQRNAPRITFGGP
Frequency of response (%) [1]: 6%
Magnitude by # of responding donors [2]: 222
Sum of response [3]: 222

FKDQVILLNKHIDAY
Frequency of response (%) [1]: 33%
Magnitude by # of responding donors [2]: 446
Sum of response [3]: 1785

SGFAAYSRYRIGNYK
Frequency of response (%): 31%
Magnitude by # of responding donors: 185
Sum of response: 739

DAALALLLLDRLNQL [SEQ ID NO 246]
Frequency of response (%) [1]: 21%
Magnitude by # of responding donors [2]: 488
Sum of response [3]: 1463

ARKSAPLIELCVDEA
Frequency of response (%) [1]: 18%
Magnitude by # of responding donors [2]: 329
Sum of response [3]: 658

RVAGDSGFAAYSRYR
Frequency of response (%) [1]: 15%
Magnitude by # of responding donors [2]: 139
Sum of response [3]: 278
